Laboratory results as given in the NIST ThermoML archive (doi:10.1021/je060271a).
“And” between values parts separate entries of the source, which are not always exact repeats. Identical values can stand only once.

Details: Liquid, Vibrating tube method

CCCCCCCC(=O)OCC(COC(=O)CCCCCCC)(COC(=O)CCCCCCC)COC(=O)CCCCCCC [pentaerythritol tetraoctanoate]
Details	mass density
323.16 K, 4757.8 kPa	943.8 kg/m3
323.16 K, 4775.8 kPa	944 kg/m3
323.16 K, 4790.7 kPa	943.8 kg/m3
323.16 K, 4806.4 kPa	943.9 kg/m3
323.16 K, 4825.1 kPa	943.9 kg/m3
323.16 K, 4840.2 kPa	943.9 kg/m3
323.16 K, 4856.4 kPa	943.9 kg/m3
323.16 K, 4875.1 kPa	943.9 kg/m3
323.16 K, 5122 kPa	944.1 kg/m3
323.16 K, 5143.5 kPa	944.1 kg/m3
323.16 K, 5161 kPa	944.2 kg/m3
323.16 K, 5179 kPa	944.2 kg/m3
323.16 K, 5197.1 kPa	944.1 kg/m3
323.16 K, 5335.6 kPa	944.3 kg/m3
323.16 K, 5398.2 kPa	944.3 kg/m3
323.16 K, 5417.6 kPa	944.3 kg/m3
323.16 K, 5438 kPa	944.3 kg/m3
323.16 K, 5461.9 kPa	944.3 kg/m3
323.16 K, 5481.8 kPa	944.5 kg/m3
323.16 K, 5502.5 kPa	944.5 kg/m3
323.16 K, 5527.1 kPa	944.4 kg/m3
323.16 K, 5547.9 kPa	944.4 kg/m3
323.16 K, 5568.6 kPa	944.4 kg/m3
323.16 K, 5590.2 kPa	944.4 kg/m3
323.16 K, 5611.9 kPa	944.4 kg/m3
323.16 K, 5637.6 kPa	944.4 kg/m3
323.16 K, 5659.6 kPa	944.4 kg/m3
323.16 K, 5703.9 kPa	944.5 kg/m3
323.16 K, 5774.4 kPa	944.6 kg/m3
323.16 K, 5797.1 kPa	944.6 kg/m3
323.16 K, 5824.6 kPa	944.7 kg/m3
323.16 K, 5870.9 kPa	944.6 kg/m3
323.16 K, 6078.5 kPa	944.7 kg/m3
323.16 K, 6238.8 kPa	944.8 kg/m3
323.16 K, 6265.6 kPa	944.9 kg/m3
323.16 K, 6297.7 kPa	944.9 kg/m3
323.16 K, 6324.9 kPa	944.9 kg/m3
323.16 K, 6352.7 kPa	944.9 kg/m3
323.16 K, 6380.2 kPa	944.9 kg/m3
323.16 K, 12370 kPa	948.8 kg/m3
323.16 K, 12396 kPa	948.8 kg/m3
323.16 K, 12424 kPa	948.8 kg/m3
323.16 K, 20026 kPa	953.6 kg/m3
323.16 K, 21868 kPa	954.6 kg/m3
323.16 K, 21910 kPa	954.7 kg/m3
323.16 K, 22807 kPa	955.3 kg/m3
323.16 K, 27149 kPa	957.8 kg/m3
323.16 K, 27197 kPa	957.9 kg/m3
323.16 K, 27237 kPa	957.9 kg/m3
323.16 K, 27277 kPa	957.9 kg/m3
323.16 K, 27317 kPa	957.9 kg/m3
323.16 K, 27366 kPa	957.9 kg/m3
323.16 K, 27451 kPa	958 kg/m3
323.16 K, 27504 kPa	958 kg/m3
323.16 K, 27997 kPa	958.3 kg/m3
323.16 K, 28020 kPa	958.4 kg/m3
323.16 K, 28046 kPa	958.3 kg/m3
323.16 K, 28069 kPa	958.3 kg/m3
343.14 K, 4667.8 kPa	929.4 kg/m3
343.14 K, 4690.1 kPa	929.4 kg/m3
343.14 K, 8016.3 kPa	931.8 kg/m3
343.14 K, 8048.6 kPa	931.8 kg/m3
343.14 K, 8086.2 kPa	932 kg/m3
343.14 K, 8118.6 kPa	931.9 kg/m3
343.14 K, 8397.9 kPa	932.1 kg/m3
343.14 K, 8438.9 kPa	932.1 kg/m3
343.14 K, 8473.8 kPa	932.1 kg/m3
343.14 K, 8822.1 kPa	932.4 kg/m3
343.14 K, 8860.4 kPa	932.5 kg/m3
343.14 K, 8906.8 kPa	932.5 kg/m3
343.14 K, 8945 kPa	932.5 kg/m3
343.14 K, 9418.7 kPa	932.8 kg/m3
343.14 K, 10399 kPa	933.5 kg/m3
343.14 K, 11681 kPa	934.4 kg/m3
343.14 K, 13765 kPa	935.9 kg/m3
343.14 K, 16874 kPa	938 kg/m3
343.14 K, 17179 kPa	938.2 kg/m3
343.14 K, 17211 kPa	938.2 kg/m3
343.14 K, 17250 kPa	938.2 kg/m3
343.14 K, 17283 kPa	938.3 kg/m3
343.14 K, 17315 kPa	938.2 kg/m3
343.14 K, 20086 kPa	940.3 kg/m3
343.14 K, 20133 kPa	940.1 kg/m3
343.14 K, 20456 kPa	940.4 kg/m3
343.14 K, 20478 kPa	940.5 kg/m3
343.14 K, 20501 kPa	940.3 kg/m3
343.14 K, 22979 kPa	942 kg/m3
343.14 K, 24214 kPa	942.8 kg/m3
343.14 K, 26657 kPa	944.4 kg/m3
343.14 K, 30407 kPa	946.7 kg/m3
343.14 K, 30444 kPa	946.7 kg/m3
343.14 K, 30488 kPa	946.6 kg/m3
343.14 K, 30968 kPa	947 kg/m3
343.14 K, 32801 kPa	948 kg/m3
343.15 K, 105.1 kPa	926 kg/m3
343.15 K, 105.3 kPa	926.1 kg/m3 and 926 kg/m3 and 926.2 kg/m3
343.15 K, 105.5 kPa	926 kg/m3
343.15 K, 105.6 kPa	925.9 kg/m3
343.15 K, 106 kPa	926.1 kg/m3
343.15 K, 108.9 kPa	926 kg/m3
343.15 K, 123.5 kPa	926.1 kg/m3
343.15 K, 154.3 kPa	926 kg/m3
343.15 K, 224 kPa	926.1 kg/m3
343.15 K, 227.5 kPa	926.1 kg/m3
343.15 K, 231.8 kPa	926 kg/m3
343.15 K, 235.3 kPa	926.1 kg/m3
343.15 K, 239.5 kPa	926.1 kg/m3
343.15 K, 243.8 kPa	926.3 kg/m3
343.15 K, 248 kPa	926.2 kg/m3
343.15 K, 253 kPa	926.2 kg/m3
343.15 K, 257.4 kPa	926.1 kg/m3
343.15 K, 262.8 kPa	926.2 kg/m3
343.15 K, 268.2 kPa	926.1 kg/m3
343.15 K, 273.2 kPa	926.1 kg/m3
343.15 K, 279.6 kPa	926.1 kg/m3
343.15 K, 285.2 kPa	926.2 kg/m3
343.15 K, 292.1 kPa	926.2 kg/m3
343.15 K, 299.6 kPa	926.2 kg/m3
343.15 K, 305.7 kPa	926.2 kg/m3
343.15 K, 313.9 kPa	926.1 kg/m3
343.15 K, 321 kPa	926.1 kg/m3
343.15 K, 329.7 kPa	926.3 kg/m3
343.15 K, 338 kPa	926.3 kg/m3
343.15 K, 347.9 kPa	926.2 kg/m3
343.15 K, 358.4 kPa	926.1 kg/m3
343.15 K, 367.9 kPa	926.2 kg/m3
343.15 K, 379.9 kPa	926.1 kg/m3
343.15 K, 392.9 kPa	926.3 kg/m3
343.15 K, 404.2 kPa	926 kg/m3
343.15 K, 419.5 kPa	926.3 kg/m3
343.15 K, 433.8 kPa	926.1 kg/m3
343.15 K, 449.4 kPa	926.1 kg/m3
343.15 K, 460.9 kPa	926.1 kg/m3
343.15 K, 471.1 kPa	926.2 kg/m3
343.15 K, 480.2 kPa	926.3 kg/m3
343.15 K, 491.8 kPa	926.5 kg/m3
343.15 K, 504 kPa	926.2 kg/m3
343.15 K, 514.2 kPa	926.3 kg/m3
343.15 K, 527.6 kPa	926.3 kg/m3
343.15 K, 538.9 kPa	926.2 kg/m3
343.15 K, 553.3 kPa	926.3 kg/m3
343.15 K, 568.4 kPa	926.4 kg/m3
343.15 K, 582.5 kPa	926.4 kg/m3
343.15 K, 596.2 kPa	926.4 kg/m3
343.15 K, 613.8 kPa	926.4 kg/m3
343.15 K, 632.2 kPa	926.4 kg/m3
343.15 K, 648.4 kPa	926.4 kg/m3
